Data published in US7572825B2, “Ketones and reduced ketones as therapeutic agents for the treatment of bone conditions” (The University Court of the University of Aberdeen, priority 2003, dated 2009).

Key:
osteoblasts = assay: Alamar Blue mouse osteoblast assay; type: cell-based; details: 72 hours exposure, read-out: IC50 against osteoblasts (survival)
Procedure: Osteoblasts were isolated as described above and plated at 10^4 cells/well in 96-well plates in 100 μL of αMEM supplemented with 10% FCS and antibiotics. Test compounds were added after 24 hours and left for 72 hours. Cell viability was assessed using the Alamar Blue assay as described for J774 macrophages. Alamar Blue (Biosource International) was added undiluted to each well (1:10 v/v, 10 μL). The plate was incubated at 37° C. for 3 to 4 hours and the fluorescence was measured at 570 nm, with a 25 nm bandwidth.
Osteoblast Isolation. Briefly, osteoblasts were isolated from the calvarial bones of 2-day-old mice by sequential collagenase digestion (type I collagenase, Sigma) and cultured in αMEM supplemented with 10% FCS (foetal calf serum) and penicillin and streptomycin at 37° C. in 5% CO2.
More specifically, osteoblasts were obtained from a collagenase digestion of the calvaria (skull bones) of 2-3 day old neo-natal MF1 mice. At this stage in their development these are soft and easily removed. The calvaria from 5-6 mice were carefully dissected and washed in HBSS (Hank's balanced saline solution). The calvaria were placed in a 15 mL tube and shaken at 37° C. in 4 mL collagenase (10 mg/ml) for 10 minutes. This removes the excess unwanted tissue. The liquid was disposed of and a further 4 mL collagenase (10 mg/ml) added to the tube. The calvaria were then digested for a further 30 minutes. […]

J774 macrophages = assay: Alamar Blue macrophage J774 viability assay; type: cell-based; details: Mus musculus, 72 hours exposure, J774 macrophage cell line, read-out: IC50 against J774 macrophages (viability)
Procedure: Initial screening of candidate compounds was performed using viability assays, on cultures of the macrophage cell line J774, which have been used before as a model system for osteoclast survival (see, e.g., Luckman et al., 1998). The assay is based on the survival of the J774 macrophage cell line; macrophages are closely related to osteoclasts, and contain similar high levels of esterase activity.
J774 cells were plated at 10^4 cells per well in 150 μL αMEM (α Modified Eagle Medium) in 96-well plates and grown overnight. The next day, compounds were added to the cultures, and culture was continued for another 72 hours. At the end of the culture period cell survival was determined using an Alamar Blue assay as previously described (see, e.g., Nociari et al., 1998).
Alamar Blue is an oxidation-reduction sensitive indicator. The dye itself is in the oxidised state, which is blue and non-fluorescent. […] Thus the transformation from oxidised form to reduced form can be measured by fluorimetric or colourimetric means. For fluorescence measurements, 530-560 nm excitation and 590 nm emission wavelengths are typically used. For colourimetric measurements, absorbance is measured at 570 nm (reduced form) and 600 nm (oxidised form) and a simple calculation performed to determine the relative quantities of the two species. […]

[1] = system: ovariectomy induced bone loss; assay: Ovariectomy induced bone loss in mice, trabecular bone mineral density by pQCT; type: in vivo; details: OVX female C57/BL6 mice, 20 mg/kg by gavage in olive oil, 21 days, tibial metaphysis
Procedure: Animals. Female 9 week-old C57/BL6 mice. Animals were housed in a designated animal facility and routinely maintained on a 12 h:12 h light:dark cycle and given ad libitum access to food and water. Ovariectomy induced bone loss. Bilateral ovariectomy (Ovx) was performed under general anaesthesia. Sham ovariectomy (Sham) was similarly performed but with externalisation and replacement of the ovaries. Animals were given a gavage of (a) candidate compound (e.g., 20 mg/kg) in vehicle (olive oil), or (b) vehicle (olive oil). After 21 days, the animals were killed, and the tibial bones were dissected and used for bone mineral density measurements. Bone Mineral Measurements. Measurements of bone mineral density (BMD) at the left proximal tibial metaphysis were determined by peripheral quantitative computed tomography (pQCT) using an XCT Research M bone densitometer with a voxel size of 70 μm and analysis software version 5.1.4. (Stratec Medizintechnik, Pforzheim, Germany). Daily quality assurance measurements were performed using a plexi-coated PVC-fluorinated hydrocarbon phantom according to the manufacturer's instructions.

Compound | IC50 (osteoblasts) [µM] | IC50 (J774 macrophages) [µM] | reversal of ovariectomy-induced bone loss (percent change in trabecular BMD) [1]
O=C(CCCCCO)c1ccc(-c2ccccc2)cc1 [ABD-68, 6-Hydroxy-1-(4-biphenyl)hexan-1-one] | > 100 | < 20 | very effective at reversing the bone loss
OCCCCCC(O)c1ccc(-c2ccccc2)cc1 (centres unmarked) [ABD-150, 1-Biphenyl-4-yl-hexan-1,6-diol] | > 100 | < 20 | –
